From patent US20250387375A1, “SOFALCONE DERIVATIVES AND MEDICAL USE THEREOF” (KAOHSIUNG MEDICAL UNIVERSITY, priority 2024, published 2025) come the findings set out here.

Bounds are passed on as bounds.

Assay [1] concerns human platelet suspension (platelet aggregation caused by collagen). Briefly: Platelet aggregation reaction test, collagen-induced. The settings on record: read-out: Collagen IC 50. In kind it is cell-based. The method, then: (§1) Blood samples were collected from healthy donors, and acid-citrate-dextrose (ACD) solution was used as an anticoagulant. The blood samples were centrifuged to obtain platelets, and residual plasma was removed by washing to prepare platelet suspension.
(§2) In the experimental method, a platelet aggregometer (Chrono-Log Co., Havertown, PA, USA) was used for tests. The compound to be tested was added to the platelet suspension and reacted for 3 minutes at 37° C. with stirring (1200 rpm). Then, platelet stimulator U46619 or collagen was added to initiate platelet aggregation, and the test time was 5 minutes. The principle of the platelet aggregation test was: when platelets were stimulated to induce aggregation reaction, the light transmission of the platelet suspension would increase; by calculating changes in light transmission of the platelet suspension before and after being stimulated, the percentage of platelet aggregation could be obtained.

Assay [2] has as its system human platelet suspension (platelet aggregation caused by TxA2 agonist U46619). Briefly: Platelet aggregation reaction test, U46619-induced. In kind it is cell-based. The method, then: as §1, §2

As for `CC(=O)Nc1ccc(/C=C/C(=O)c2ccc(OCC=C(C)C)cc2OCC(=O)O)cc1` [Compound 26], the IC50 in assay [1] was found to be 40.8 µM; in assay [2], 15.7 µM.

Turning to `CC(C)=CCOc1ccc(/C=C/C(=O)c2ccccc2OCC(=O)O)cc1` [Compound 27], the IC50 in assay [1] is 18.8 µM; in assay [2], 5.07 µM.

On to `O=C(O)COc1ccccc1C(=O)/C=C/c1ccc(F)cc1` [Compound 28], for which the IC50 was 4.22 µM in assay [1] and 1.8 µM in assay [2].

As to `O=C(O)COc1cc(F)ccc1C(=O)/C=C/c1ccccc1` [Compound 29], the IC50 is 7.88 µM in assay [1] and 1.56 µM in assay [2].

In the case of `O=C(O)COc1cc(F)ccc1C(=O)C=Cc1ccccc1` [Compound 31], the figures for the IC50 in assay [1] and in assay [2] were 7.1 µM and 4.4 µM, respectively.

In the case of `CC(C)=CCOc1ccc(C=CC(=O)c2ccc(OCC=C(C)C)cc2OCCCCCC(=O)O)cc1` [Compound 32], the IC50 was 12.8 µM in assay [1] and 5.85 µM in assay [2].

As for `O=C(O)COc1cc(F)ccc1C(=O)C=Cc1ccc(F)cc1` [Compound 33], the IC50 in assay [1] is 12.2 µM; in assay [2], 2.15 µM.

Turning to `O=C(O)CCCOc1ccccc1C(=O)C=Cc1ccccc1` [Compound 34], the IC50 was determined as 6.4 µM in assay [1] and 9.5 µM in assay [2].

With `O=C(O)COc1ccccc1C(=O)C=Cc1ccccc1` [Compound 35], the IC50 in assay [1] was 7.91 µM; in assay [2], 6.58 µM.

Consider `O=C(O)CCCCCOc1ccccc1C(=O)C=Cc1ccccc1` [Compound 36], for which the IC50 worked out at 0.13 µM in assay [1] and 0.19 µM in assay [2].

For the compound `CC(C)=CCOc1ccc(C=CC(=O)c2ccc(OCC=C(C)C)cc2OCCCCC(=O)O)cc1` [Compound 37], the IC50 in assay [1] worked out at 1.58 µM; in assay [2], 0.23 µM.

Consider `CCOC(=O)CCCCCOc1ccccc1C(=O)C=Cc1ccccc1F` [Compound 38], for which the IC50 was determined as 0.07 µM in assay [1] and 0.03 µM in assay [2].

`CCOC(=O)CCCCCOc1ccccc1C(=O)C=Cc1cccc(F)c1` [Compound 39]: the IC50 was 0.07 µM in assay [1] and 0.05 µM in assay [2].

For the compound `CCOC(=O)COc1cc(O)ccc1C(=O)C=Cc1cccc(O)c1` [Compound 40], the values for the IC50 in assay [1] and in assay [2] were 10.3 µM and 25.9 µM, respectively.

Turning to `CCOC(=O)COc1cc(O)ccc1C(=O)C=Cc1ccc(O)c(O)c1` [Compound 41], the figures for the IC50 in assay [1] and in assay [2] were 15.2 µM and 34.9 µM, respectively.

On to `CCOC(=O)COc1ccccc1C(=O)C=Cc1ccc(O)cc1` [Compound 42], for which the IC50 in assay [1] worked out at 1.59 µM; in assay [2], 38.7 µM.

Consider `CCOC(=O)COc1cc(O)ccc1C(=O)C=Cc1ccc(F)cc1` [Compound 43], for which the IC50 in assay [1] turned out to be 2.26 µM; in assay [2] it was 55.6 µM.

For `CCOC(=O)COc1cc(O)ccc1C(=O)C=Cc1ccc(Cl)cc1` [Compound 44], the IC50 in assay [1] is 8.92 µM; in assay [2], above 100 µM.

With `CCOC(=O)COc1cc(O)ccc1C(=O)C=Cc1ccc([N+](=O)[O-])cc1` [Compound 45], the IC50 in assay [1] and in assay [2] was above 20 µM each time.

Regarding `CCOC(=O)COc1ccccc1C(=O)C=Cc1ccc(N)cc1` [Compound 46], the figures for the IC50 in assay [1] and in assay [2] were 5.08 µM and 64 µM, respectively.

`CCOC(=O)COc1ccccc1C(=O)C=Cc1ccc(O)cc1` [Compound 47]: the IC50 in assay [1] is 16.4 µM; in assay [2], 35.2 µM.

With `CCOC(=O)COc1cc(OC)ccc1C(=O)C=Cc1ccc(OC)cc1` [Compound 48], the IC50 in assay [1] and in assay [2] was above 100 µM throughout.

Turning to `O=C(O)CCCCCOc1ccccc1C(=O)CCc1ccccc1` [Compound 49], the IC50 in assay [1] came out at 4.85 µM; in assay [2], 0.5 µM.

Turning to `O=C(O)CCCCCOc1ccccc1C(=O)CCc1cccc(F)c1` [Compound 50], the IC50 in assay [1] was determined as 0.33 µM; in assay [2] it was 0.57 µM.

Turning to `O=C(O)CCCCCOc1ccccc1C(=O)C=Cc1cccs1` [Compound 51], the IC50 in assay [1] came out at 0.62 µM; in assay [2] it was 0.57 µM.

For `O=C(O)CCCCCOc1ccccc1C(=O)C=Cc1ccco1` [Compound 52], the IC50 in assay [1] came to 0.56 µM; in assay [2], 0.5 µM.

For the compound `O=C(O)CCCCCOc1ccccc1C(=O)C=Cc1ccccn1` [Compound 53], the figures for the IC50 in assay [1] and in assay [2] were 44.4 µM and 50.4 µM, respectively.

`O=C(O)CCCCCOc1ccccc1C(=O)C=Cc1cccnc1` [Compound 54]: the IC50 in assay [1] was 22.1 µM; in assay [2] it was 5.45 µM.

With `CC(C)=CCOc1ccc(C(=O)C=Cc2cccs2)c(OCCCCCC(=O)O)c1` [Compound 55], the IC50 came to 4.4 µM in assay [1] and 5.37 µM in assay [2].

`O=C(O)COc1ccccc1C(=O)C=Cc1ccco1` [Compound 56]: the IC50 in assay [1] is 38.3 µM; in assay [2], 72.2 µM.

As for `O=C(O)COc1ccccc1C(=O)C=Cc1cccs1` [Compound 57], the figures for the IC50 in assay [1] and in assay [2] were 15.5 µM and 71.5 µM, respectively.

Regarding `O=C(O)COc1ccccc1C(=O)C=Cc1ccc(Br)s1` [Compound 58], the results for the IC50 in assay [1] and in assay [2] were 40.9 µM and 72.6 µM, respectively.

For the compound `O=C(O)COc1ccccc1C(=O)C=Cc1ccccn1` [Compound 59], the IC50 in assay [1] is 33.8 µM; in assay [2], 72.1 µM.

For the compound `O=C(O)COc1ccccc1C(=O)C=Cc1cccnc1` [Compound 60], the IC50 in assay [1] amounted to 39.8 µM; in assay [2] it was 29.3 µM.

For `CCOC(=O)CCCCCOc1ccccc1C(=O)C=Cc1cccs1` [Compound 61], the IC50 in assay [1] amounted to 0.56 µM; in assay [2] it was 0.54 µM.

In the case of `CCOC(=O)CCCCCOc1ccccc1C(=O)C=Cc1ccco1` [Compound 62], the figures for the IC50 in assay [1] and in assay [2] were 0.58 µM and 0.48 µM, respectively.

`CCOC(=O)CCCCCOc1ccccc1C(=O)C=Cc1ccccn1` [Compound 63]: the IC50 in assay [1] is 6.05 µM; in assay [2] it was 4.57 µM.

`CCOC(=O)CCCOc1cc(OCC=C(C)C)ccc1C(=O)C=Cc1cccs1` [Compound 64]: the IC50 is 3.85 µM in assay [1] and 5.87 µM in assay [2].

Regarding `CCOC(=O)COc1ccccc1C(=O)C=Cc1ccco1` [Compound 65], the IC50 in assay [1] amounted to 3.13 µM; in assay [2], 78.4 µM.

Turning to `CCOC(=O)COc1ccccc1C(=O)C=Cc1cccs1` [Compound 66], the IC50 in assay [1] turned out to be 2.86 µM; in assay [2] it was 70.2 µM.

As to `CCOC(=O)COc1ccccc1C(=O)C=Cc1ccc(Br)s1` [Compound 67], the results for the IC50 in assay [1] and in assay [2] were 5.35 µM and above 100 µM, respectively.

Take `COC(=O)COc1cc(OCC=C(C)C)ccc1C(=O)C=Cc1ccc(OCC=C(C)C)cc1` [Compound 68]: the IC50 in assay [1] and in assay [2] was above 100 µM throughout.

As for `COC(=O)COc1cc(O)ccc1C(=O)C=Cc1ccc(O)cc1` [Compound 69], the IC50 in assay [1] was determined as 3.42 µM; in assay [2], 27.8 µM.

`O=C(O)CCCOc1cc(O)ccc1C(=O)C=Cc1ccc(O)cc1` [Compound 70]: the IC50 in assay [1] was 6.55 µM; in assay [2] it was 5.43 µM.

Consider `O=C(O)COc1cc(O)ccc1C(=O)C=Cc1ccc(O)cc1` [Compound 71], for which the IC50 in assay [1] was above 100 µM; in assay [2], 65.4 µM.

For `COC(=O)COc1cc(O)ccc1C(=O)CCc1ccc(O)cc1` [Compound 72], the IC50 in assay [1] is 11.6 µM; in assay [2], 47.6 µM.

With `COC(=O)CCCOc1cc(OCC=C(C)C)ccc1C(=O)CCc1ccc(OCC=C(C)C)cc1` [Compound 73], the IC50 in assay [1] came out at 62.9 µM; in assay [2] it was 10.7 µM.

`COC(=O)COc1cc(OCC=C(C)C)ccc1C(=O)CCc1ccc(OCC=C(C)C)cc1` [Compound 74]: the IC50 in assay [1] and in assay [2] was above 100 µM in each case.

`CC(C)=CCOc1ccc(CCC(=O)c2ccc(OCC=C(C)C)cc2OCCCC(=O)O)cc1` [Compound 75]: the IC50 in assay [1] came out at 1.3 µM; in assay [2] it was 0.35 µM.

Consider `CC(C)=CCOc1ccc(CCC(=O)c2ccc(OCC=C(C)C)cc2OCC(=O)O)cc1` [Compound 76], for which the figures for the IC50 in assay [1] and in assay [2] were 31 µM and 12.6 µM, respectively.

On to `O=C(O)CCCCCOc1ccccc1C(=O)C=Cc1ccccc1` [Compound 77], for which the IC50 in assay [1] was determined as 43.6 µM; in assay [2], 5.54 µM.

As for `Nc1ccsc1C=CC(=O)c1ccccc1OCCCCCC(=O)O` [Compound 78], the IC50 turned out to be 7.7 µM in assay [1] and 5.87 µM in assay [2].

As for `O=C(O)CCCCCOc1ccccc1C(=O)C=Cc1nccs1` [Compound 80], the IC50 in assay [1] was 62.7 µM; in assay [2], 51.5 µM.

Consider `COC(=O)COc1cc(OC(C)=O)ccc1C(=O)C=Cc1ccc(OC(C)=O)cc1` [Compound 81], for which the IC50 in assay [1] amounted to 23.8 µM; in assay [2] it was 28 µM.

Regarding `COC(=O)COc1cc(OCC(=O)c2ccccc2)ccc1C(=O)C=Cc1ccc(OCC(=O)c2ccccc2)cc1` [Compound 82], the figures for the IC50 in assay [1] and in assay [2] were at least 100 µM and above 100 µM, respectively.

With `CCOC(=O)COc1ccc(C=CC(=O)c2ccc(OCC(=O)OCC)cc2OCC(=O)OC)cc1` [Compound 83], the IC50 in assay [1] came to 8.31 µM; in assay [2], 8.62 µM.

`CCOC(=O)COc1ccc(C=CC(=O)c2ccc(OCC(=O)OCC)cc2OCC(=O)O)cc1` [Compound 84]: the IC50 in assay [1] was above 100 µM; in assay [2] it was 80.8 µM.

As to `COC(=O)COc1cc(OCc2ccccc2)ccc1C(=O)C=Cc1ccc(OCc2ccccc2)cc1` [Compound 85], the IC50 in assay [1] and in assay [2] was above 100 µM throughout.

For `COC(=O)COc1cc(OCc2ccc(F)cc2)ccc1C(=O)C=Cc1ccc(OCc2ccc(F)cc2)cc1` [Compound 86], the IC50 in assay [1] and in assay [2] was above 100 µM in each case.

Take `COC(=O)COc1cc(OCc2ccc(OC)cc2)ccc1C(=O)C=Cc1ccc(OCc2ccc(OC)cc2)cc1` [Compound 87]: the IC50 in assay [1] and in assay [2] was above 100 µM each time.
